# Assay results published in the SangsterLogP compilation.
row,logP,SMILES
1,5.31,Brc1cccc(-c2cc3ccccn3c2)c1
2,4.29,c1ccc(-c2cc3ccccn3c2)cc1
3,4.2,COc1ccc(-c2cc3ccccn3c2)cc1
4,2.49,c1ccn2cccc2c1
5,5.43,Brc1ccc(-c2cc3ccccn3c2)cc1
6,5.2,Clc1ccc(-c2cc3ccccn3c2)cc1
7,4.14,COc1cccc(-c2cc3ccccn3c2)c1
8,5.14,Clc1cccc(-c2cc3ccccn3c2)c1
9,4.96,Cc1ccc(-c2cc3ccccn3c2)cc1
10,4.87,Cc1cccc(-c2ccc3cccn3c2)c1
